# From patent publication US10975142B2, “Endotrophin neutralization and use thereof” (THE BOARD OF REGENTS OF THE UNIVERSITY OF TEXAS SYSTEM, priority 2013, dated 2021)
# What was measured:
# PyMT mice = assay: TZD and cisplatin treatment of FP635/PyMT (PyMT) mice; type: in vivo, mouse
# Protocol: FIGS. 19A-19F. TZD augments cisplatin sensitivity and correlates with the COL6A3 levels. FIG. 19A. FP635/PyMT mice were given TZD containing chow (supply approx. 20 mg/kg/day, rosiglitazone) or normal-diet (ND) starting at 8-weeks of age, and cisplatin (1 mg/kg) or PBS treatment was initiated at 10 weeks of age (ip., 3 times/week) over the course of tumor progression. Tumor burden was monitored with a fluorescence scanner (IVIS, Caliper life science). Quantified results are represented as mean±SD (n=8-9/group). *p=0.04, ND/CIS vs. TZD/CIS by unpaired student t-test. Metastatic burden was determined by fluorescence signals in lung tissues. FIG. 19B. Primary cancer cells isolated from tumors in PyMT mice were implanted into WT mice. TZD were given 5 days prior to cisplatin treatment (1 mg/kg, every 5 days). Tumor volumes were determined by caliper measurement and represented as mean±SD (n=5-6/group). *p<0.05 and **p<0.001, ND/CIS vs. TZD/CIS by 2-way ANOVA. FIGS. 19C-19D. Total RNA was extracted from tumor tissues in each group. mRNA levels for collagens such as COL1A1, COL6A1, -A2, and -A3 (FIG. 19C), and EMT genes such as E-cadherin, N-cadherin, Vimentin, Snail, Slug, Twist1 and Twist2 (FIG. 19D) were determined by qRT-PCR and normalized with 36B4. Quantitative results represent mean±SD (n=7/group). *p<0.05, **p<0.01, ***p<0.001 ND/PBS vs. ND/CIS; ^###p<0.001 ND/CIS vs. TZD/CIS by 2-way ANOVA. FIGS. 19E-19F. EMT indices were determined by immunostaining with E-Cadherin (FIG. 19E) and Vimentin (FIG. 19F). Cytokeratin (epithelial cells) and DAPI (nucleus) were co-stained. Staining positive area was quantified (multiple images, n=5/group). **p=0.014 (E) and *p=0.015 (F), ND/CIS vs. TZD/CIS by unpaired student t-test. Scale bars: 100 μm.
# FIGS. 23A-23B: TZD confers beneficial effects on cisplatin treatment in mammary tumors. Met-1 cancer cells (0.5×10^6 cells/mouse) were implanted into wild-type mice and TZD (20 mg/kg) was given by diet and cisplatin (1 mg/kg) was intraperitoneally (ip.) injected every 5 days from 30 days post implantation (n=8/group). ***p<0.001 vs. ND by 2-way ANOVA. Tumor tissues from PyMT mice given TZD or normal diet (ND) diet were histologically assessed. […] Data represent mean±SD (n=5/group). **p=0.0042 ND vs. TZD by unpaired student t-test. Scales: 50 μm. […] Data represent mean±SD (n=5/group). *p=0.002 ND vs. TZD by unpaired student t-test. Arrows indicate staining positive cells. Scales: 25 μm.
# Cisplatin (sigma, 479306) was diluted to 1 mg/ml in PBS and was sonicated briefly before injection. […]
# Infrared fluorescence expressing MMTV-PyMT mice (FP635/PyMT) were imaged by IVIS scanner (Caliper lifesciences) and signal intensity was analyzed with Living image v.3.2 (Caliper lifesciences).
# endotrophin+-tumors = assay: allografts of Ctrl- and endotrophin+-cancer cells in wild-type hosts, TZD and cisplatin; type: in vivo, mouse; conditions: cisplatin 1 mg/kg ip. every 5 days, TZD 20 mg/kg or ND
# Protocol: FIGS. 21A-21F. TZD synergizes cisplatin sensitivity through suppression of endotrophin-mediated EMT, fibrosis and vasculature. FIGS. 21A-21B. Schematic diagram for allografts (FIG. 21A), indicating cancer cells (0.5×10^6 cells/mouse) were isolated from tumors in PyMT (Ctrl) and PyMT/endotrophin (ETP) mice and implanted into wild-type hosts. Host mice were given TZD (20 mg/kg) or ND diet at 10 days before implantation for tumor progression. Cisplatin (1 mg/kg, ip., every 5 days) was administered at 3-weeks post implantation. […] Data represent mean±SD (n=8-9/group). *p=0.05, **p=0.01 and ***p=0.001 Ctrl/ND vs. ETP/ND; ^##p=0.01 and ^###p=0.001 ETP/ND vs. ETP/TZD by unpaired student t-test. FIGS. 21C-21F. Histological analysis of tumors in allografts after cisplatin treatment. […] Vimentin staining quantification (FIG. 21D), showing decreased EMT in both Ctrl- and endotrophin^+-tumors by TZD. ***p<0.0001 and ^###p<0.0001. Quantification of perfused lectin staining (FIG. 21E), showing the increased functional blood vessels in endotrophin^+-tumors was decreased by TZD. *p=0.015, **p=0.001 and ^##p=0.0088. Masson's Trichrome C staining quantification (FIG. 21F), showing increased fibrosis in endotrophin^+-tumors was decreased by TZD. ***p<0.0001 and ^##p=0.0013. […] Statistics (*Ctrl/ND/CIS vs. Ctrl/TZD/CIS or ETP/ND/CIS; ^#ETP/ND/CIS vs. ETP/TZD/CIS) were analyzed by unpaired student t-test. […]
compound,measurement,setting,value
"N.N.[Cl][Pt][Cl] [cisplatin, cis-diammine-dichloro-platinum]",EMT in tumor tissues (loss of E-cadherin or increase in vimentin),PyMT mice; immunostaining,significant increase
same,metallothionein (MT) levels in tumor tissues,PyMT mice; immunostaining,significantly increased
same,mRNA levels of COL6A3 in tumor tissues,PyMT mice; qRT-PCR,significantly increased
same,"mRNA levels for EMT transcription factors (Snail, Slug, Twist1)","PyMT mice; qRT-PCR, tumor tissues",significantly increased
same,tumor growth (volume) of endotrophin+-tumors,endotrophin+-tumors,more resistant
